The values below come from patent US20070093469A1, “Substituted azetidine compounds as cyclooxygenase-1-cyclooxygenase-2 inhibitors, and their preparation and use as medicaments” (LABORATORIOS DEL DR. ESTEVE S.A, priority 2004, published 2007).

A word on the IC50: it is the concentration needed to halve the response being measured. What is called ED50 is the midpoint of the dose-response relation. The melting point is the temperature of the solid-liquid transition. As a reminder, the inhibition is how much of the control response was suppressed.

Series [1] addresses T1, Cox-1 enzyme (Ovis aries, UniProt P05979).
T1 construct: purchased Cayman Chemical 60100
T1 sequence (P05979 25-600): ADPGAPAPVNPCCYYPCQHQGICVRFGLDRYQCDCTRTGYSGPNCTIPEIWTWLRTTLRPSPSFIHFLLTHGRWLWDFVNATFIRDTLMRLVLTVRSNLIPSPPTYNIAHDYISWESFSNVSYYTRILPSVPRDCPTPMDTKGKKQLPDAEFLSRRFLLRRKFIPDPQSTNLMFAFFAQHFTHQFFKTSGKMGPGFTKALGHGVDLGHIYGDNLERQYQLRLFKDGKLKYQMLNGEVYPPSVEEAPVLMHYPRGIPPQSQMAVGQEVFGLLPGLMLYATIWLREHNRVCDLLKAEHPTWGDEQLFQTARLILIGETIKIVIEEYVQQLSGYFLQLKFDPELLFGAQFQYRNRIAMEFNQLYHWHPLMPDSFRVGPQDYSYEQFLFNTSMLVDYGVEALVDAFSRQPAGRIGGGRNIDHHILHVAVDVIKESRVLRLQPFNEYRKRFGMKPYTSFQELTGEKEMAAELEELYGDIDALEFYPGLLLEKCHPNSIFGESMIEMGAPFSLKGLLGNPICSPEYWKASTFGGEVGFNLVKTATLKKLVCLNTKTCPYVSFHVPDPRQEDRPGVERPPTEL
Description: Cox-1/Cox-2 enzyme assay (Cox-1). The series is classed as biochemical. The note with it: for IC50: enzyme assay. The procedure:
(§1) I. Cox-1/Cox-2 Enzyme Assay:
(§2) The Cox-1/Cox-2 enzyme assay for the inventive azetidine compounds is carried out according to the following description:
(§3) Immediately after the addition of the substrate, the slope corresponding to the optical density increase at 480 nm is recorded for 1 minute. The reaction is monitored with a Hewlett-Packard 8452A spectrophotometer.

Series [2] has as its target T2, Cox-2 enzyme (Ovis aries, UniProt P79208).
T2 construct: purchased Cayman Chemical 60120
T2 sequence (P79208 17-603): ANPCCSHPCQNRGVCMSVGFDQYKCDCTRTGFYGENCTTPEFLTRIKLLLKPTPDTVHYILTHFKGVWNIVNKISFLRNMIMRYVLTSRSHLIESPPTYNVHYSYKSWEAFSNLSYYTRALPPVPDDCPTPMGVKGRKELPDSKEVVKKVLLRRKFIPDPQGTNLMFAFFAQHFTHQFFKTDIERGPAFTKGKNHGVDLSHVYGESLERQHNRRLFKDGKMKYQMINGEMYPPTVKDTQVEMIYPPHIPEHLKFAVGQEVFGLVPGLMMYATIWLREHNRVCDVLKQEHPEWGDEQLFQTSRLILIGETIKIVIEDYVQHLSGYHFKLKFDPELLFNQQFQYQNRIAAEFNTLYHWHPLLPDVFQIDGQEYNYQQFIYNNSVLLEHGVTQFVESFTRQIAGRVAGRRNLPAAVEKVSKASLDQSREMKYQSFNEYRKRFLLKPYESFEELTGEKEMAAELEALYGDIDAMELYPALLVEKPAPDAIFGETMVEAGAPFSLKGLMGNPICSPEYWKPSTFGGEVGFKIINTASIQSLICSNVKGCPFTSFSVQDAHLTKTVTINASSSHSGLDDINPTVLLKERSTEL
Nature of the series: Cox-1/Cox-2 enzyme assay (Cox-2). The note with it: for IC50: enzyme assay. The series is classed as biochemical. The procedure: as §1, §2, §3

In series [3] the test system is PGE2 production in rat gastric mucosa. Description: PGE2 production in rat gastric mucosa. The format is in vivo. The note with it: rats, oral route, read-out: PGE2 gastric mucose ED50. The procedure:
(§4) VI: PGE2 Production in Rat Inflammatory Exudate and Gastric Mucosa
(§5) The PGE2 production in rat inflammatory exudate and gastric mucosa is carried out as described in the publication of O Tofanetti et al., “Effect of nimesulide on cyclo-oxygenase activity in rat gastric mucosa and inflammatory exudate”, Med Sci Res 17, 745-746 (1989). The respective part of the description is hereby incorporated by reference and forms part of the present disclosure.
(§6) For this text 6 male wistar rats (Interfauna-St Feliú de Codines, Barcelona) of approximately 200 g (each approximately 6 weeks of age) are used. The compounds to be tested are administered via oral route in gum Arabic at 5% (weight/volume) at a rate of 10 ml/kg.
(§7) One hour after administration of the compounds and under halothane anaesthesia, each rat is implanted subcutaneously in the interescapular area a 40×15×5 mm polyester sponge, soaked in a 0.5% suspension of carrageenan. Rats are sacrificed 6 hours after the implant, the sponges are removed and squeezed. The exudates are collected and centrifuged at 6000×G for 15 minutes.
(§8) The rats's stomachs are removed and the gastric mucosa is detached from the underlying layers and by means of a 10 mm diameter die, mucosa samples from an area between the gastric corpus and pyloric antrum are taken. The mucosal PGE2 is extracted. PGE2 concentrations from the inflammatory exudates and the gastric mucosa are determined by means of inmmunoassay reagents of Cayman Chemical kit, Ann Arbor, Mich., U.S.A. (Catalogue number: 514010) according to the manufacturer's instructions.

In series [4] the test system is PGE2 production in rat inflammatory exudate. Description: PGE2 production in rat inflammatory exudate. The series is classed as in vivo. The note with it: rats, oral route, carrageenan sponge implant, read-out: PGE2 Inflam. exudade ED50. On the procedure:
as §4, §5, §6, §7, §8

Series [5] has as its system rats. Nature of the series: Test for activity against edema in rats (carrageenin paw). The series is classed as in vivo. The note with it: Rattus norvegicus, oral route. The procedure:
IV. Test for Activity Against Edema in Rats
The test for activity against edema is carried out as described in the publication of Winter et al., Proc. Soc. Exp. Biol. Med. 111, 544-547, (1962). The respective part of the description is hereby incorporated by reference and forms part of the present disclosure.
At the beginning of each experimental session the rats are deprived of food, and kept in cages within groups of 5 animals, the cages being fitted with a grating on the floor to prevent coprophagy. After a period of 24 hours without food, the animals are marked in a suitable way, weighed and hydrated via oral administration of 30 ml/kg body weight of tap water. Half an hour after the hydratisation, the compounds to be tested are administered via oral route, in an amount of 10 ml/kg body weight as a suspension in gum arabic at 5% (weight/volume). One hour after administration of the compounds the animals receive 0.1 ml of the inflammation causing agent (carrageenin 1% weight/volume, in sterile solution), injected via subplantar route into the right hind paw of the rats. Immediately after the carrageenin injection the volume of the injected paw is determined using a plethysmometer. The readings are expressed in ml. Readings of the volume of the paw are taken every hour after administration of the carrageenin for 7 hours.

Take `CC(C)(C)c1cc(C(=O)N2CC(O)C2)cc2c1OCC2(C)C` [Example 14, (7-tert-butyl-3,3-dimethyl-2,3-dihydro-benzofuran-5-yl)-(3-hydroxy-azetidin-1-yl)-methanone]: the melting point lay within 144 to 148 °C. Further, the IC50 in series [1] is 48.3 µM. Also, the 50% inhibitory concentration (IC50) in series [2] came to 0.6 µM. Moreover, in series [3], the ED50 was 2.7 mg/kg. The median effective dose (ED50) in series [4] was 1.8 mg/kg.
As to `CC(C)(C)c1cc(C(=O)N2CC(O)C2)cc(C(C)(C)C)c1` [Example 2, (3,5-di-tert-butyl-phenyly)-(3-hydroxy-azetidin-1-yl)-methanone], the melting point was 146 to 149 °C. In series [1] (read-out: % inhibition 5 × 10^−5 M COX-1), the inhibition at 50 µM came to 9%. Besides, the IC50 in series [2] was found to be 1.8 µM. In series [2] (read-out: % inhibition 5 × 10^−5 M COX-2), the inhibition at 50 µM was found to be 78%. The 50% effect level in series [5] (ED50) was put at a dose of 28 mg/kg. Besides, the 50% effective dose (ED50) in series [3] came out at 3.7 mg/kg. Moreover, in series [4], the 50% effective dose (ED50) worked out at 5.9 mg/kg.
Compound `CC1C(O)CN1C(=O)c1cc(C(C)(C)C)c(O)c(C(C)(C)C)c1` (stereo not drawn) [Example 4, (3,5-di-tert-butyl-4-hydroxy-phenyl)-(3-hydroxy-2-methyl-azetidin-1-yl)-methanone] yielded a melting point of 162 to 166 °C. Further, half-maximal inhibition in series [1] (IC50) was put at 246 µM. In series [2], this compound showed an IC50 of 3.75 µM. The compound further yielded an ED50 in series [5] of 31 mg/kg. In addition, the 50% effective dose (ED50) in series [3] was 1 mg/kg. In addition, in series [4], the 50% effective dose (ED50) came to 5.8 mg/kg.
